These results are taken from publication PMC7155171, “Probing the Open Global Health Chemical Diversity Library for Multistage-Active Starting Points for Next-Generation Antimalarials” (ACS Infectious Diseases, 2020).

pIC50: −log10 of the molar value.

In data set [1] the target is recombinant firefly luciferase (Photinus pyralis, UniProt P08659). Put plainly: biochemical. As to conditions: dose response; for Emax: maximum inhibition, read-out: rLuc inhibition dose response: Maximum inhibition (%); for pIC50: read-out: rLuc inhibition dose response: IC50.
recombinant firefly luciferase, sequence (P08659 whole entry): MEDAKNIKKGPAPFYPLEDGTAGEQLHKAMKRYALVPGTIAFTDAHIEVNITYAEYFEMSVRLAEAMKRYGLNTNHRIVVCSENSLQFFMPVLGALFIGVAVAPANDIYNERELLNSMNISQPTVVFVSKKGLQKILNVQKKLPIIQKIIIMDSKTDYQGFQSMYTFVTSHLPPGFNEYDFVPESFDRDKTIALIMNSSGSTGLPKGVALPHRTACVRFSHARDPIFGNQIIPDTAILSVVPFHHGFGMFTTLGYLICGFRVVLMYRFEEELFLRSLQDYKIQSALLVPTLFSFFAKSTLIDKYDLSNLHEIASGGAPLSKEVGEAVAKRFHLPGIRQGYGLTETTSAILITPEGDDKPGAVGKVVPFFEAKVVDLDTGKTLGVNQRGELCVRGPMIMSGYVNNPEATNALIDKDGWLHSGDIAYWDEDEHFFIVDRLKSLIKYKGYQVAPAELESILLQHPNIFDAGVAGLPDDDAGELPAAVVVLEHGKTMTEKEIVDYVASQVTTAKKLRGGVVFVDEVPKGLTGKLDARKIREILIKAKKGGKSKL
For data set [2], the system named is HepG2-A16-CD81 hepatocytes. Put plainly: HepG2 cytotoxicity screening (CellTiter-Glo). As to conditions: for HepG2 cytotoxicity 12pt dose response: Maximum inhibition (%): 12pt dose response. For orientation: In ATP-based viability assays light output follows the ATP content of the culture.
The nature of data set [3]: HepG2 cytotoxicity screening (CellTiter-Glo). To be noted: human, uninfected HepG2-A16-CD81 (EGFP) hepatocytes.
The test system of data set [4] is P. berghei liver stage (PbLuc). Put plainly: P. berghei luciferase liver stage (PbLuc) assay in HepG2-A16-CD81 hepatocytes. To be noted: Plasmodium berghei; for pIC50: HepG2-A16-CD81, 12pt dose response, read-out: PbLuc 12pt dose response: IC50; for Emax: HepG2-A16-CD81, 48 h, 12pt dose response, maximum inhibition. The format is cell-based, Plasmodium berghei.

Take `CCCc1cc(=O)[nH]c(-n2nc(C3CC3)cc2N)n1` [UCSD-0786964]: the Emax in data set [1] came to 12.2%. The pIC50 is less than 4.60 in data set [1], 4.69 in data set [3] and 5.33 in data set [4]. The “HepG2 cytotoxicity 12pt dose response: Maximum inhibition (%)” value in data set [2] turned out to be 75.4%. In addition, the inhibition at 2 µM in data set [3] was -26.2%.

For the molecule `CC(C)c1cc(=O)[nH]c(-n2nc(C3CC3)cc2N)n1` [UCSD-0786965], the Emax in data set [1] amounted to 1.26%; in data set [4] it was 83%. Also, the pIC50 in data set [1] was less than 4.60; in data set [3], 4.72; in data set [4] it was 5.79. Moreover, the “HepG2 cytotoxicity 12pt dose response: Maximum inhibition (%)” value in data set [2] was determined as 73.6%. For the same molecule, in data set [3], the inhibition at 2 µM was determined as 3.79%.

Take `Cc1cc(NC(=O)C(C)C)n(-c2nc(C)c(C)c(=O)[nH]2)n1` [UCSD-0786977]: the Emax in data set [1] stood at 12.4%; in data set [4], 100%. The pIC50 in data set [1] is less than 4.30; in data set [3], less than 4.60; in data set [4], 6.89. Also, the “HepG2 cytotoxicity 12pt dose response: Maximum inhibition (%)” value in data set [2] is on record as 36.8%.

Turning to `Cc1cc(C(=O)N2CCN(c3nc4c(C(C)C)cccc4s3)CC2)no1` [UCSD-0787009], the figures for the Emax in data set [1] and in data set [4] were 34.2% and 98.9%, respectively. The pIC50 in data set [1] was less than 4.30; in data set [3], less than 4.60; in data set [4], 6.09. Moreover, the “HepG2 cytotoxicity 12pt dose response: Maximum inhibition (%)” value in data set [2] is given as 1.29%.

For the molecule `Cc1cc(C(=O)N2CCN(c3nc4c(C(C)C)cccc4s3)CC2)on1` [UCSD-0787150], the Emax in data set [1] is 11.6%; in data set [4] it was 101%. Moreover, the results for the negative logarithm of the IC50 (pIC50) in data set [1], in data set [3] and in data set [4] were less than 4.30, less than 4.60 and 5.40, respectively. Moreover, the “HepG2 cytotoxicity 12pt dose response: Maximum inhibition (%)” value in data set [2] turned out to be 21.7%.

In the case of `CCc1cc(=O)[nH]c(-n2nc(C3CC3)cc2NC(=O)C2CC2)n1` [UCSD-0787226], in data set [1], the Emax was 8.54% and the pIC50 was less than 4.60. Besides, the “HepG2 cytotoxicity 12pt dose response: Maximum inhibition (%)” value in data set [2] was determined as 54%. Further, in data set [3], the pIC50 was less than 4.60 and the inhibition at 2 µM is -1.99%. In addition, in data set [4], the pIC50 is 6.46 and the Emax was 92.4%.

For the molecule `CCc1c(C)nc(-n2nc(C3CC3)cc2NC(C)=O)[nH]c1=O` [UCSD-0787229], the values for the Emax in data set [1] and in data set [4] were 16.1% and 97.2%, respectively. Moreover, the pIC50 is less than 4.30 in data set [1], less than 4.60 in data set [3] and 7.08 in data set [4]. In addition, the “HepG2 cytotoxicity 12pt dose response: Maximum inhibition (%)” value in data set [2] is listed as 3.74%.

On to `O=S(=O)(c1ccc(Cl)s1)N1CCN(Cc2nc(-c3ccco3)cs2)CC1` [UCSD-0787251], for which the Emax was found to be 13.6% in data set [1] and 93.6% in data set [4]. For the same molecule, the pIC50 was less than 4.60 in data set [1], 4.66 in data set [3] and 4.96 in data set [4]. Besides, in data set [2], the “HepG2 Cytotoxicity primary screen (2uM): % Inhibition” value is reported as 12.14%. In data set [2], the “HepG2 cytotoxicity 12pt dose response: Maximum inhibition (%)” value stood at 65.6%.

Take `CC(C)(C)NC(=O)N1CCC(Oc2ccc(C(F)(F)F)cn2)CC1` [UCSD-0787817]: in data set [1], the Emax amounted to 13% and the pIC50 is less than 4.60. In data set [2], the “HepG2 Cytotoxicity primary screen (2uM): % Inhibition” value was -4.73% and the “HepG2 cytotoxicity 12pt dose response: Maximum inhibition (%)” value is 16.5%. Besides, in data set [3], the pIC50 is less than 4.60. Further, in data set [4], the pIC50 is 4.94 and the Emax worked out at 93.5%.

Take `CCOc1ccc(S(=O)(=O)Nc2cnc(OC)nc2OC)cc1` [UCSD-0788088]: in data set [1], the Emax is -1.04% and the pIC50 is less than 4.60. For the same molecule, in data set [2], the “HepG2 cytotoxicity 12pt dose response: Maximum inhibition (%)” value was determined as 61%. Moreover, in data set [3], the pIC50 was less than 4.60 and the inhibition at 2 µM stood at 4.64%. For the same molecule, in data set [4], the pIC50 is 5.29 and the Emax is 71.2%.

As for `COc1cccc(CN2CCc3nc(C(=O)NCC(C)C)sc3CC2)c1` [UCSD-0790206], in data set [1], the Emax was found to be 32%. In addition, the pIC50 in data set [1] was less than 4.60; in data set [3], less than 4.60; in data set [4] it was 5.01. The “HepG2 Cytotoxicity primary screen (2uM): % Inhibition” value in data set [2] is -10.23%. Further, in data set [2], the “HepG2 cytotoxicity 12pt dose response: Maximum inhibition (%)” value is on record as 35.9%.

For `O=C([C@H]1C[C@@H]2CCN(c3cccc(F)c3)C[C@H]2O1)N1CCCC1` [UCSD-0792262], the Emax turned out to be 28.4% in data set [1] and 93.8% in data set [4]. The figures for the pIC50 in data set [1], in data set [3] and in data set [4] were less than 4.60, less than 4.60 and 4.99, respectively. Besides, the “HepG2 Cytotoxicity primary screen (2uM): % Inhibition” value in data set [2] is listed as 4.38%.

With `O=C(NCCCN1CCCCC1)c1ccc(-n2ccc3ccccc32)s1` [UCSD-0795001], the Emax in data set [1] is -4.22%; in data set [4], 116%. Also, the pIC50 in data set [1] is less than 4.60; in data set [3], 4.66; in data set [4], 4.94. Moreover, the “HepG2 Cytotoxicity primary screen (2uM): % Inhibition” value in data set [2] was found to be 0.00%. Besides, the “HepG2 cytotoxicity 12pt dose response: Maximum inhibition (%)” value in data set [2] came out at 66.1%.

As for `CCS(=O)(=O)N1CCc2ccc(NC(=O)Nc3cccc(SC)c3)cc21` [UCSD-0795016], in data set [1], the Emax amounted to 12.2% and the negative logarithm of the IC50 (pIC50) was less than 4.60. The “HepG2 cytotoxicity 12pt dose response: Maximum inhibition (%)” value in data set [2] is listed as 54%. For the same molecule, in data set [3], the pIC50 was 5.47 and the inhibition at 2 µM was determined as 0%. Also, in data set [4], the negative-log IC50 (pIC50) is 5.86 and the Emax came out at 98.9%.

As for `Cc1[nH]/c(=N\C(=O)c2csc(NCC(C)C)n2)sc1C` [UCSD-0795190], in data set [1], the Emax turned out to be 77% and the negative-log IC50 (pIC50) was 5.02. In data set [2], the “HepG2 cytotoxicity 12pt dose response: Maximum inhibition (%)” value is on record as 42.7%. For the same molecule, in data set [3], the pIC50 is less than 4.60 and the inhibition at 2 µM was determined as 0%. In addition, in data set [4], the pIC50 was 5.05 and the Emax came to 84.4%.

Consider `CC(=O)Nc1ccc(-n2ccc3nc(N4CCCC4)ncc3c2=O)cc1` [UCSD-0795240], for which, in data set [1], the Emax was -8.22% and the pIC50 is less than 4.60. In addition, in data set [2], the “HepG2 cytotoxicity 12pt dose response: Maximum inhibition (%)” value stood at 8.78%. Also, in data set [3], the pIC50 was less than 4.60 and the inhibition at 2 µM stood at 0%. In data set [4], the pIC50 was 5.39 and the Emax came out at 100%.

On to `Cc1ccc(N(CC(=O)c2ccc(Br)cc2)C2=NCCCCC2)cc1` [UCSD-0795313], for which the Emax came to 7.66% in data set [1] and 93.4% in data set [4]. Moreover, the pIC50 in data set [1] was less than 4.60; in data set [3], less than 4.60; in data set [4], 4.87. The “HepG2 Cytotoxicity primary screen (2uM): % Inhibition” value in data set [2] is recorded as 0.00%. In addition, the “HepG2 cytotoxicity 12pt dose response: Maximum inhibition (%)” value in data set [2] was 28.6%.

As for `COCCCNC1N=C(n2nc(C)cc2C)Nc2sc3c(c21)CCCC3` (stereo not drawn) [UCSD-0796603], in data set [1], the Emax was determined as 17.3% and the pIC50 was less than 4.60. For the same molecule, in data set [2], the “HepG2 Cytotoxicity primary screen (2uM): % Inhibition” value was determined as 2.66% and the “HepG2 cytotoxicity 12pt dose response: Maximum inhibition (%)” value is listed as -1.93%. Besides, the pIC50 in data set [3] is less than 4.60. Further, in data set [4], the pIC50 is 5.36 and the Emax is 98.7%.

With `CC(=O)Nc1ncc(S(=O)(=O)Nc2ccc3c(c2)OCCO3)s1` [UCSD-0796805], in data set [1], the Emax was found to be 52.2% and the pIC50 was less than 4.60. Also, in data set [2], the “HepG2 Cytotoxicity primary screen (2uM): % Inhibition” value was -2.36% and the “HepG2 cytotoxicity 12pt dose response: Maximum inhibition (%)” value was 4.04%. In data set [3], this molecule gave a pIC50 of less than 4.60. Besides, in data set [4], the pIC50 was 5.01 and the Emax was determined as 92%.

One may read the pIC50 as the negative decadic logarithm of the IC50, by convention in mol/L. What is called inhibition is the change of the read-out against control, counted positive when it falls.
